In a melting point compilation (Tetko et al.; mined from patent text by program, amines drawn as free bases though some values may be those of a salt):

`CCOC(=O)C1=C(NC(=O)Nc2cc(C(=O)OC(C)C)c(Cl)cc2Cl)CCC1` gave a melting point of 140 to 142 °C.
With `O=C1NC(=O)C2(CCOc3c([N+](=O)[O-])cc(F)cc32)S1` (stereo unspecified) the melting point was 192 to 194 °C.
With `Cc1cn(-c2nc(Nc3cccc(NS(C)(=O)=O)c3)nc3[nH]cnc23)cn1` the melting point was 298 to 301 °C.
In the case of `NCCCNC(=O)c1cccc(Nc2nccc(-c3ccnc(NCCCO)c3)n2)c1`, the melting point was 169 to 170 °C.
Compound `Nc1cc(C(=O)O)ccc1C(F)(F)F` has a melting point of 175 to 177 °C.
With `c1ccc(CN2CCC3(C2)OC(c2ccccc2)c2ccccc23)cc1` (stereo unspecified) the melting point was 85 to 87 °C.
Work on `COc1cc2c(cc1Nc1ncc(Cl)c(Nc3ccccc3S(=O)(=O)N(C)C)n1)CCN(C(=O)C(C)(C)N)CC2` yielded a melting point of 93 to 101 °C.
For `COc1cccc(N2CCN(c3c(C)c(C)c4c(c3C)C(N3CCCC3)C(C)(C)O4)CC2)c1` (stereo unspecified), the melting point was 106 to 107 °C.
Compound `C=CCc1cccnc1C(=O)OC` has a melting point of 116 to 119 °C.
With `CCOC(=O)c1sc(C)nc1O` the melting point was 104 °C.
Compound `CCOc1ccc(C=O)cc1CCl` has a melting point of 74.5 to 75.5 °C.
For `Cc1ccc(C=NNC(=O)OC(C)(C)C)cc1C`, the melting point was 168 to 169 °C.
`COc1ccc(C(CC(=O)Nc2ncccc2C)N2C(=O)c3ccccc3C2=O)cc1OC` (stereo unspecified) gave a melting point of 171 to 172 °C.
For `O=C(CS(=O)(=O)c1ccccc1)NC1CCN(Cc2ccc(Cl)c(Cl)c2)CC1`, the melting point was 97 to 99 °C.
In the case of `CCOc1cccc(-c2nc3n(n2)Cc2ccccc2-3)c1`, the melting point was 166 to 167 °C.
Compound `CS(=O)(=O)N(Cc1ccc(F)cc1)c1cccnc1` has a melting point of 93 to 95 °C.
`Nc1cccc(-c2nc(-c3cccnc3)no2)c1` showed a melting point of 161 to 163 °C.
Work on `OC1CCCCC1c1ccccc1` (stereo unspecified) yielded a melting point of 55 to 57 °C.
Work on `CCN1CC(NC(=O)c2ccc(F)cc2)CN1CC` yielded a melting point of 114 to 116 °C.
Work on `O=[N+]([O-])c1ccc(C2SCCCS2)c(CO)c1` yielded a melting point of 130 to 131 °C.
With `COc1cc2ncc(C#N)c(Nc3ccc4cn[nH]c4c3)c2cc1OC` the melting point was 180 to 183 °C.
Work on `Cc1[nH]c(=O)sc1C(=O)c1ccc(F)cc1` yielded a melting point of 209 to 210 °C.
Work on `CCOC(=O)C=Cc1csc(Nc2ccccc2)n1` yielded a melting point of 113 to 118 °C.
Compound `CC(C)(C)c1cc(C(O)C#Cc2ccc(C(=O)O)c(O)c2)cc(C(C)(C)C)c1OCOCC[Si](C)(C)C` (stereo unspecified) has a melting point of 146 to 147 °C.
For `COc1cc(-c2nn(C)c(C(F)(F)F)c2Cl)c(F)cc1[N+](=O)[O-]`, the melting point was 115 to 116 °C.
`O=c1c2cncc3cccc(c32)n2c([N+](=O)[O-])ccc12` showed a melting point of 192 °C.
In the case of `CC(C)(C#N)c1cc(O)cc2cc(-c3ccc(O)cc3)oc12`, the melting point was 284 °C.
Work on `CC(C)(C)Nc1ccccc1C(CCC1CCCCC1)C(=O)c1cccc(Cl)c1` (stereo unspecified) yielded a melting point of 150 to 152 °C.
With `COc1cc(CC(=O)O)ccc1CNC(=O)C1Cc2ccccc2N1S(=O)(=O)c1ccc(-c2cccc(C(F)(F)F)c2)cc1` (stereo unspecified) the melting point was 99 to 105 °C.
Compound `CC(C)C(=O)NC1CCc2c(c3cc(C(N)=O)ccc3n2Cc2cccc(F)c2)C1` (stereo unspecified) has a melting point of 192 to 194 °C.
With `N=C(N)c1noc2cc([N+](=O)[O-])ccc12` the melting point was 182 to 185 °C.
`Cc1c(N(C)C)cc(C(=O)CS(C)(=O)=O)cc1N(C)C` gave a melting point of 161 to 163 °C.
With `OCCCCCc1ccc(OCc2coc(/C=C/c3ccccc3)n2)cc1` the melting point was 93 to 94 °C.
In the case of `CSC1=CNSC1(C#N)SC` (stereo unspecified), the melting point was 63.5 to 64 °C.
`CCOC(=O)C(=NOCC(C)C)c1csc(N)n1` showed a melting point of 122 to 124 °C.
Compound `CCCCCCc1c(Cl)nc(N=CN(C)C)nc1Cl` has a melting point of 59 to 60 °C.
`CCc1cc(-c2nc3ccccc3s2)ccc1N` showed a melting point of 118 to 120 °C.
Compound `O=C1N(Cc2cccnn2)c2ccccc2C12COc1cc3c(cc12)CCO3` (stereo unspecified) has a melting point of 81 to 82 °C.
Compound `Nc1ccc2c(c1)N1CCCN=C1S2` has a melting point of 197 °C.
`Cc1ccc(C#Cc2cnc(-c3ccc(C(F)(F)F)cc3)s2)s1` gave a melting point of 107 to 108 °C.
In the case of `O=C(O)c1cc(Cl)ccc1S`, the melting point was 192 to 194 °C.
Work on `CC1C(=O)C2CCCCC2N2CCc3ccccc3C12` (stereo unspecified) yielded a melting point of 144 to 148 °C.
For `CCOC(=O)c1ccc(NC(=O)N2CCc3cc(SC)c(C(F)(F)F)cc32)cc1`, the melting point was > 200 °C.
With `N#Cc1cccc(Oc2ccccc2)c1C#N` the melting point was 110 to 112 °C.
With `Cc1oc(-c2ccccc2)nc1COc1ccc(CCCc2nnn[nH]2)cn1` the melting point was 137 to 138 °C.
For `CNC(=O)C(Cc1ccc2ccccc2c1)NC(=O)OC(C)(C)C` (stereo unspecified), the melting point was 177 to 179 °C.
`CCC(OC1OC(COC(C)=O)C(OC(C)=O)C(OC(C)=O)C1OC(C)=O)C(=O)O` (stereo unspecified) showed a melting point of 98 to 100 °C.
In the case of `CCNC(=O)c1c([Si](C)(C)C)ccc(C)c1Cl`, the melting point was 120 to 122 °C.
`CCCn1c(=O)c2[nH]c(C34CCC(C)(C(=O)C3=O)C4(C)C)nc2n(CCC)c1=O` (stereo unspecified) gave a melting point of 200 to 201 °C.
For `COC(=O)CC(=O)C[C@@H]1CC(=O)N1`, the melting point was 45 to 46.5 °C.
`COC(=O)CCCCc1cccnc1CNC=O` gave a melting point of 43 to 45 °C.
`Cc1c(NC(=O)c2ccc(-c3ccc(F)cc3F)cc2)ccc2cc(CN3CCCC3)cnc12` showed a melting point of 177 to 179 °C.
With `CCN1C(=O)SC(Cc2ccc(NC(=O)/C=C/c3cnn(C)c3-c3ccc(F)cc3)cc2)C1=O` (stereo unspecified) the melting point was 214 to 215 °C.
With `CCCc1c(OCCCSc2cccc(CC(=O)OC)c2F)ccc(C(C)=O)c1O` the melting point was 63 to 65 °C.
`CC(=O)Oc1c(C)c(CCl)nc2ccccc12` showed a melting point of 108 to 109 °C.
In the case of `O=C(O)c1ccc(NCC=Cc2ccccc2)cc1`, the melting point was 200 to 202 °C.
In the case of `CC(C)CCCC(C)(C)NC(=O)CN1C(=O)c2ccccc2C1=O`, the melting point was 162 to 163 °C.
`O=[N+]([O-])c1ccc(-n2cccn2)cc1` gave a melting point of 210 °C.
In the case of `OCc1cn(Cc2ccc(Cl)cc2)nc1CN1CCC(c2ccccc2)(c2ccccc2)CC1`, the melting point was 104 to 105 °C.
Work on `CN(c1ccc(F)c2cc(-c3nccs3)[nH]c12)S(=O)(=O)c1cccs1` yielded a melting point of 197 to 198 °C.
In the case of `NC(=O)c1[nH]c2ccccc2c1-c1ccc(NC(=O)Nc2cccc(C(F)(F)F)c2)cc1`, the melting point was 156 to 158 °C.
For `O=S1NC(CC2=Cc3ccccc3CC2)=NO1` (stereo unspecified), the melting point was 118 to 120 °C.
`O=c1[nH]c(=S)[nH]cc1Cc1cccc(Cl)c1` gave a melting point of 192 to 195 °C.
For `Cc1nc(NC(=O)Nc2ccc(Cl)cc2)sc1C(=O)NCc1ccccc1`, the melting point was > 300 °C.
`Cc1nnc2n1N=C(c1ccc3c(c1)NC(=O)CO3)C(C)(C)S2` showed a melting point of 249 to 250 °C.
In the case of `CCCCOc1cc(/C=C/C(=O)NS(=O)(=O)CCC(C)C)n(Cc2ccc(C(F)(F)F)cc2Cl)n1`, the melting point was 89.5 to 90.5 °C.
`COCOc1cccc2c(=O)[nH]c(C3CCN(C)CC3)cc12` gave a melting point of 194 to 196 °C.
`CC(=O)Oc1ccc(NC(=O)c2ccc(Sc3cc4c(cc3C)C(C)(C)CCC4(C)C)cc2)cc1` gave a melting point of 186 to 187 °C.
Work on `CCOC(=O)c1c(-c2ccccc2C)c2cc(C)c(Cl)cc2[nH]c1=O` yielded a melting point of 290 to 291 °C.
Work on `CN(Cc1ccccc1)CC1CNC(=O)c2cccc3[nH]cc1c23` (stereo unspecified) yielded a melting point of 191 to 193 °C.
With `CCOCc1nc2c(N)nc3cc(-c4cccnc4)ccc3c2n1CCCCNC(=O)OC(C)(C)C` the melting point was 117 to 119 °C.
`O=C(NCCCn1cncn1)c1ccc(Cl)nc1` gave a melting point of 87 to 89 °C.
For `NC(=O)NC1CCCCC1`, the melting point was 175 to 176 °C.
Compound `CCCCCC(=O)Nc1c(C)c(C)c2c(c1C)C(c1ccc(C)cc1)C(C)(C)O2` (stereo unspecified) has a melting point of 96 to 97 °C.
Compound `COc1ccc(C(=O)Nc2ccc3ccc(CO)nc3n2)cc1` has a melting point of 212 °C.
`CCOCC(=NO)C(C)(C)NOC(CNC(C)(C)C(C)=NO)Cn1ccnc1[N+](=O)[O-]` (stereo unspecified) showed a melting point of 129 to 130 °C.
In the case of `c1ccc2c(C3CN4CCC3CC4)c[nH]c2c1` (stereo unspecified), the melting point was 214 to 216 °C.
Compound `COC(=O)C=Cc1ccc(-c2ccc(C=CC(=O)OC)cc2C(F)(F)F)c(C(F)(F)F)c1` has a melting point of 158 to 161 °C.
`NC(=O)N(O)CCNC(=O)c1csc(-c2ccccc2)n1` showed a melting point of 188 to 192 °C.
Work on `NC(=NO)c1ccc(-c2ccc(O)cc2)o1` yielded a melting point of 157 to 158 °C.
Compound `COC(=O)C1C(C)=NC(N2CCCC2)=C(C(=O)OC(C)C)C1c1cccc([N+](=O)[O-])c1` (stereo unspecified) has a melting point of 140 °C.
With `CS(=O)(=O)c1ccc(C2=C(I)C(=O)C3(CCOCC3)O2)cc1` the melting point was 210 to 213 °C.
In the case of `COC(=O)C(=Cc1cc(OC)c(OC)cc1Br)c1ccccc1C(=O)OC`, the melting point was 117 to 119 °C.
Work on `Cc1cccc(Cl)c1NC1=NCCN1` yielded a melting point of 112 to 114 °C.
`CCC(=O)N1CCCSC1=C[N+](=O)[O-]` showed a melting point of 84 to 86 °C.
`COc1ccc2c(c1)OC(=O)C(C)(C#Cc1ccccc1)C2` (stereo unspecified) showed a melting point of 136 to 138 °C.
With `NC(=O)c1c(Cl)c(-c2ccccc2)n2c1CN(C(=O)c1cccs1)CC2` the melting point was 236 to 238 °C.
In the case of `O=C(O)COc1cccc2c1Cc1sc(S(=O)(=O)CC=Cc3ccccc3)nc1-2`, the melting point was 212 to 214 °C.
For `CCOC(=O)c1cn(C)nc1Cl`, the melting point was 65 to 66 °C.
For `O=C(CC(=O)c1ccccc1Cl)Nc1ccccc1`, the melting point was 142 °C.
`COc1ccc2c3c1OC1CC(O)C=CC31CCN(C(=O)Nc1ccccc1)C2` (stereo unspecified) showed a melting point of 198 to 199 °C.
In the case of `Nc1ccc(CC(NC(=O)CCCCCCCCCCCNC(=O)C(c2ccccc2)c2ccccc2)c2ccccc2)cc1` (stereo unspecified), the melting point was 107 to 114 °C.
For `CC(=O)Nc1ccc([N+]([O-])=NC#N)cc1`, the melting point was 240 to 242 °C.
In the case of `O=C(N[C@H]1CC[C@H](CCN2CCN(c3nccc4c3CCO4)CC2)CC1)C1(O)CCC1`, the melting point was 178 °C.
`CC(C)COC(NC(=O)OCc1ccccc1)C(=O)O` (stereo unspecified) gave a melting point of 66 to 68 °C.
Compound `COC(=O)c1c(C(=O)OC)c(C(C)C)n(CCC2CC(O)CC(=O)O2)c1-c1ccc(F)cc1` (stereo unspecified) has a melting point of 167 to 170 °C.
`C=C(Cc1ccccc1)C(=O)NN1CCNCC1` showed a melting point of 78 °C.
Work on `CCCc1nn(-c2ccc(C(F)(F)F)cn2)cc1/C=C/C(=O)OCC` yielded a melting point of 104 to 105 °C.
With `COC(=O)C1(c2c(F)cccc2F)Nc2ccccc2N1Cc1c(F)cccc1F` (stereo unspecified) the melting point was 185 to 186 °C.
In the case of `O=C(O)CCCCCNS(=O)(=O)c1ccccc1`, the melting point was 113 to 115 °C.
With `CC(=O)Oc1cc(C(C)=O)c(O)cc1NS(C)(=O)=O` the melting point was 205 to 206 °C.
`COc1cccc2c(-c3ccccc3)c([N+](=O)[O-])oc12` showed a melting point of 160 to 161 °C.
With `COc1ccc(Cn2c(=O)oc(=O)c3cc(F)cnc32)cc1` the melting point was 143 °C.
In the case of `CNC(=O)c1cc(Br)cc(C)c1N`, the melting point was 133 to 135 °C.
For `CCNC(=O)n1nc(Oc2ccc(C#N)cc2C(F)(F)F)cc1C`, the melting point was 103 to 105 °C.
In the case of `Oc1ccc(-c2nn(-c3cccc(F)c3)c3cc(O)ccc23)c(O)c1`, the melting point was > 200 °C.
